In patent US10975037B2 (priority 2018, dated 2021):
Counter-ions that a name gives are not always drawn. Like-named read-outs stand apart in the source and are kept apart here.

What was measured:
[1] = tested on: IL-17 production by CD4 T cells under conditions which favor Th17 differentiation; test: Human Th17 assay (IL-17 production by CD4 T cells); assay type: cell-based; settings: Homo sapiens, CD4+ T; read-out: Human Th17 Assay, IC50
Protocol: The human Th17 assay tests the effect of RORγt modulatory compounds on IL-17 production by CD4 T cells under conditions which favor Th17 differentiation. Total CD4^+ T cells were isolated from the peripheral blood mononuclear cells (PBMC) of healthy donors using a CD4^+ T cell isolation kit II, following the manufacturer's instructions (Miltenyi Biotec). […] 50 μL of compound at titrated concentrations in DMSO were added into each well at final DMSO concentration at 0.2%. Cells were incubated for 1 hour, then 50 μL of Th17 cell differentiation medium was added to each well. […] Cells were cultured at 37° C. and 5% CO2 for 3 days. Supernatants were collected and the accumulated IL-17 in culture was measured by using MULTI-SPOT® Cytokine Plate following manufacture's instruction (Meso Scale Discovery). The plate was read using Sector Imager 6000, and IL-17 concentration was extrapolated from the standard curve. The IC50s were determined by GraphPad.

[2] = biological target: human RORγt ligand binding domain (RORγt LBD) (Homo sapiens (Human), UniProt P51449); test: RORγt ThermoFluor® assay (thermal shift binding)
Outline: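 Thermal shift with 0.065 mg/mL RORγt LBD and 60 μM 1,8-ANS in 100 mM Hepes pH 7.0, 10 mM NaCl, 2.5 mM GSH, 0.002% Tween-20.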

[3] = biological target: full-length human RORγt (Homo sapiens (Human), UniProt P51449); test: RORγt (full-length human) reporter assay, conditions A or B, HEK293T cells; assay type: cell-based; settings: for inhibition at 0.67 µM: 0.67 μM compound concentration (footnote ****); for IC50: RORγt (FL) Reporter Assay A or B, IC50, HEK293T cells; for inhibition at 3 µM: 3 μM compound concentration (footnote *)
Outline: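 After 16–20 h, dual firefly/Renilla luciferase luminescence was read. Firefly signal was normalized to DMSO and saturating reference compound, then to Renilla, and fitted for IC50; % inhibition is versus DMSO.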

[4] = HEK-293T, read-out: RORγt (FL) Reporter Assay A or B, % inhibition
[5] = read-out: ThermoFluor® Assay, Kd
[6] = HEK-293T, 2 μM compound concentration, read-out: RORγt (FL) Reporter Assay A or B, % inhibition

human RORγt ligand binding domain (RORγt LBD), sequence (P51449 other isoform, or with tags, fused parts or gaps): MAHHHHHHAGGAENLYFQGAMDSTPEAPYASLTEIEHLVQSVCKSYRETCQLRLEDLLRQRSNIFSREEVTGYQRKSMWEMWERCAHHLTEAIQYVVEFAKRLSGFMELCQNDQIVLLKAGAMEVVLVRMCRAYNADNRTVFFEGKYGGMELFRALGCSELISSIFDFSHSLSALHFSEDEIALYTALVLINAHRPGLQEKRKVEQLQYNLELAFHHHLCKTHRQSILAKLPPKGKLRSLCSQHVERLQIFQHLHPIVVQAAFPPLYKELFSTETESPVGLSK
full-length human RORγt, sequence (P51449 other isoform, or with tags, fused parts or gaps): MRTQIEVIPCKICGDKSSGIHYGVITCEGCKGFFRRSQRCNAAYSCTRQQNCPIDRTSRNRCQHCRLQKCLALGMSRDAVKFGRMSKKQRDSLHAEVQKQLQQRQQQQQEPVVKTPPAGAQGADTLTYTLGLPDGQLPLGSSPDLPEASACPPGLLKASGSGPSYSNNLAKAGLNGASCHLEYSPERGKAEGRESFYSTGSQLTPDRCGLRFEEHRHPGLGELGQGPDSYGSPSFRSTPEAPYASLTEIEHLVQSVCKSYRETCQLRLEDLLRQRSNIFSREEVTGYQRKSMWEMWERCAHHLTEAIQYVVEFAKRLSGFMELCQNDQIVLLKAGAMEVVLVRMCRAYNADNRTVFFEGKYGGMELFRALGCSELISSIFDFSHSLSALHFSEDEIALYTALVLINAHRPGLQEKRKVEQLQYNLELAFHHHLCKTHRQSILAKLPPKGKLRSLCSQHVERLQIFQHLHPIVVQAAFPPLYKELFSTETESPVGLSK

| Kd [2, 5] [nM] | SMILES | IC50 [1] [nM] | IC50 [3] [nM] | other results |
| --- | --- | --- | --- | --- |
|  | CCn1nc(C(=O)NC[C@H]2CC[C@H](S(C)(=O)=O)CC2)c(Cl)c1-c1ccc(C[C@H](C)C(F)(F)F)cc1OC (single isomer, unassigned) [Example 3, 4-Chloro-1-ethyl-5-(2-methoxy-4-((S*)-3,3,3-trifluoro-2-methylpropyl)phenyl)-N-(((1r,4R)-4-(methylsulfonyl)cyclohexyl)methyl)-1H-pyrazole-3-carboxamide] | 15 | 9 | Kd ([2]; ThermoFluor® Assay, Kd): 0.63 nM; inhibition at 0.67 µM [3, 4]: 98% |
|  | CCn1nc(C(=O)NC[C@]2(O)CC[C@@H](S(C)(=O)=O)C[C@H]2O)c(Cl)c1-c1ccc(CC(C)(C)C(F)(F)F)cc1OC(F)F (single isomer, unassigned) [Example 46, 4-Chloro-5-(2-(difluoromethoxy)-4-(3,3,3-trifluoro-2,2-dimethylpropyl)phenyl)-N-(((1R*,2R*,4R*)-1,2-dihydroxy-4-(methylsulfonyl)cyclohexyl)methyl)-1-ethyl-1H-pyrazole-3-carboxamide] | 13 | 5 | Kd ([2]; ThermoFluor® Assay, Kd): 0.42 nM; inhibition at 0.67 µM [3, 4]: 92% |
|  | CCn1nc(C(=O)NC[C@]2(O)CC[C@@H](S(C)(=O)=O)C[C@H]2O)c(Cl)c1-c1ccc(C[C@H](C)C(F)(F)F)cc1OC(F)F (stereo in doubt) [Example 53, 4-Chloro-5-(2-(difluoromethoxy)-4-((S*)-3,3,3-trifluoro-2-methylpropyl)phenyl)-N-(((1R*,2R*,4R*)-1,2-dihydroxy-4-(methylsulfonyl)cyclohexyl)methyl)-1-ethyl-1H-pyrazole-3-carboxamide] | 13 | 6.3 | Kd ([2]; ThermoFluor® Assay, Kd): 1.6 nM; inhibition at 1 µM ([3]; HEK-293T, 1 μM compound concentration (footnote ***), read-out: RORγt (FL) Reporter Assay A or B, % inhibition): 99% |
|  | CCn1nc(C(=O)NC[C@]2(O)CC[C@@H](S(C)(=O)=O)C[C@H]2O)c(C)c1-c1ccc(C[C@H](C)C(F)(F)F)cc1OC(F)F (stereo in doubt) [Example 58, 5-(2-(difluoromethoxy)-4-((S*)-3,3,3-trifluoro-2-methylpropyl)phenyl)-N-(((1R*,2R*,4R*)-1,2-dihydroxy-4-(methylsulfonyl)cyclohexyl)methyl)-1-ethyl-4-methyl-1H-pyrazole-3-carboxamide] | 19 | 9.7 | Kd ([2]; ThermoFluor® Assay, Kd): 2.6 nM; inhibition at 3 µM [3, 4]: 100% |
|  | CCn1nc(C(=O)NC[C@]2(N)CC[C@@H](S(C)(=O)=O)CC2)c(Cl)c1-c1ccc(CC(C)(C)C(F)(F)F)cc1OC(F)F [Example 19, N-(((1s*,4s*)-1-Amino-4-(methylsulfonyl)cyclohexyl)methyl)-4-chloro-5-(2-(difluoromethoxy)-4-(3,3,3-trifluoro-2,2-dimethylpropyl)phenyl)-1-ethyl-1H-pyrazole-3-carboxamide 2,2,2-trifluoroacetic acid salt] | 14 |  | inhibition at 3 µM [3, 4]: 122% |
|  | CCn1nc(C(=O)NC[C@H]2CC[C@H](S(C)(=O)=O)CC2)c(Cl)c1-c1ccc(CC(C)(C)C(F)(F)F)cc1OC [Example 44, 4-chloro-1-ethyl-5-(2-methoxy-4-(3,3,3-trifluoro-2,2-dimethylpropyl)phenyl)-N-(((1r,4r)-4-(methylsulfonyl)cyclohexyl)methyl)-1H-pyrazole-3-carboxamide] | 5.2 |  | inhibition at 0.67 µM [3, 4]: 96% |
| 10 | CCn1nc(C(=O)NC[C@]2(O)CC[C@@H](S(C)(=O)=O)CC2)c(C)c1-c1ccc(CCC(F)(F)F)cc1OC(F)F [Example 223, 5-(2-(Difluoromethoxy)-4-(3,3,3-trifluoropropyl)phenyl)-1-ethyl-N-(((1s,4s)-1-hydroxy-4-(methylsulfonyl)cyclohexyl)methyl)-4-methyl-1H-pyrazole-3-carboxamide] |  | 2.3 | inhibition at […] ([3]; HEK-293T, 0.33 μM compound concentration (footnote *****), read-out: RORγt (FL) Reporter Assay A or B, % inhibition): 68% |
| 2.4 | CCn1nc(C(=O)NC[C@H]2CC[C@H](S(C)(=O)=O)CC2)c(C)c1-c1ccc(CCC(F)(F)F)cc1OC(F)F [Example 224, 5-(2-(Difluoromethoxy)-4-(3,3,3-trifluoropropyl)phenyl)-1-ethyl-4-methyl-N-(((1r,4r)-4-(methylsulfonyl)cyclohexyl)methyl)-1H-pyrazole-3-carboxamide] |  | 0.44 | inhibition at […] ([3]; HEK-293T, 0.11 μM compound concentration (footnote ********), read-out: RORγt (FL) Reporter Assay A or B, % inhibition): 95% |
| 26 | CCn1nc(C(=O)NC[C@]2(O)CC[C@@H](S(C)(=O)=O)CC2)c(C)c1-c1ccc(CCC(F)(F)F)cc1OC [Example 225, 1-Ethyl-N-(((1s,4s)-1-hydroxy-4-(methylsulfonyl)cyclohexyl)methyl)-5-(2-methoxy-4-(3,3,3-trifluoropropyl)phenyl)-4-methyl-1H-pyrazole-3-carboxamide] |  | 93 | inhibition at 2 µM [3, 6]: 76% |
| 12 | CCn1nc(C(=O)NC[C@H]2CC[C@H](S(C)(=O)=O)CC2)c(C)c1-c1ccc(CCC(F)(F)F)cc1OC [Example 226, 1-Ethyl-5-(2-methoxy-4-(3,3,3-trifluoropropyl)phenyl)-4-methyl-N-(((1r,4r)-4-(methylsulfonyl)cyclohexyl)methyl)-1H-pyrazole-3-carboxamide] |  | 38 | inhibition at 0.67 µM [3, 4]: 71% |
| 12 | CCn1nc(C(=O)NC[C@H]2CC[C@H](S(C)(=O)=O)CC2)c(C)c1-c1ccc(N[C@H](C)C(F)(F)F)cc1OC [Example 228, 1-Ethyl-5-(2-methoxy-4-(((R)-1,1,1-trifluoropropan-2-yl)amino)phenyl)-4-methyl-N-(((1r,4R)-4-(methylsulfonyl)cyclohexyl)methyl)-1H-pyrazole-3-carboxamide] |  | 29 | inhibition at 6 µM ([3]; HEK-293T, read-out: RORγt (FL) Reporter Assay A or B, % inhibition @ 6 μM, 6 μM compound concentration): 99% |
| 3.1 | CC(C)(Cc1ccc(-c2c(Cl)c(C(=O)NC[C@]3(O)CC[C@@H](S(C)(=O)=O)CC3)nn2CCCC#N)c(OC(F)F)c1)C(F)(F)F [Example 229, 4-Chloro-1-(3-cyanopropyl)-5-(2-(difluoromethoxy)-4-(3,3,3-trifluoro-2,2-dimethylpropyl)phenyl)-N-(((1s,4s)-1-hydroxy-4-(methylsulfonyl)cyclohexyl)methyl)-1H-pyrazole-3-carboxamide] |  | 9 | inhibition at 3 µM [3, 4]: 78% |

| SMILES | Kd [2, 5] [nM] | IC50 [1] [nM] | IC50 [3] [nM] | other results |
| --- | --- | --- | --- | --- |
| CCn1nc(C(=O)NC[C@H]2CC[C@H](S(C)(=O)=O)CC2)c(Cl)c1-c1ccc(N[C@H](C)C(F)(F)F)cc1OC [Example 23, 4-chloro-1-ethyl-5-(2-methoxy-4-(((R)-1,1,1-trifluoropropan-2-yl)amino)phenyl)-N-(((1 r,4R)-4-(methylsulfonyl)cyclohexyl)methyl)-1H-pyrazole-3-carboxamide] | 4.6 | 38 | 28 | inhibition at 2 µM [3, 6]: 104% |
| CCn1nc(C(=O)NC[C@]2(C#N)CC[C@@H](S(C)(=O)=O)CC2)c(Cl)c1-c1ccc(N[C@H](C)C(F)(F)F)cc1OC [Example 32, 4-Chloro-N-(((1s,4S)-1-cyano-4-(methylsulfonyl)cyclohexyl)methyl)-1-ethyl-5-(2-methoxy-4-(((R)-1,1,1-trifluoropropan-2-yl)amino)phenyl)-1H-pyrazole-3-carboxamide] | 7.6 | 62 | 53 | inhibition at 2 µM [3, 4]: 96% |
